{"source": "patent US20060115804A1", "about": "“Method of studying living cells” (priority 2002, published 2006)", "tested_on": "Primary human osteoblasts", "test": "Formation and mineralisation of bone nodules (962 cm^-1 hydroxyapatite Raman peak) by osteoblasts cultured on 45S5 Bioglass", "format": "cell-based", "settings": "culture medium supplemented with BGP; cells on 45S5 Bioglass substrates", "experimental": "Primary human osteoblasts were cultured on 45S5 Bioglass® substrates in order to induce formation of new bone. The formation of new bone can be detected with high sensitivity using Raman spectroscopy with 785 nm lasers by detecting the 962 cm^−1 Raman peak of hydroxyapatite (the mineral phase of bone). […] Only peaks corresponding to intrinsic cellular components were measured."}
{"compound": "O=P(O)(O)OC(CO)CO", "note": "[beta-glycerophosphate (BGP), beta-glycerophosphate]", "values": [{"measurement": "Hydroxyapatite Raman peak (formation of bone nodules)", "value": "a strong peak corresponding to hydroxyapatite was detected"}]}
